System: P12-Ichikawa
Assay: cell viability relative to DMSO control; higher = less cytotoxic
Details: 48 h
How it was run: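 NOMO1 or SEM (500 cells/well) or P12-Ichikawa (1000 cells/well) leukemia cells were adapted for at least four passages in each medium. They were seeded in 1536-well plates (5 μl) and pin-dosed with library compounds in DMSO over an 11-point threefold series, 47 μM to 0.79 nM. CellTiter-Glo One luminescence was read after 48 h at 37°C. Viability is the per-plate percentage relative to DMSO wells, with cell-free wells as background.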

[1] = HPLM + 10% dialyzed FBS, 0.000781 µM
[2] = HPLM + 10% dialyzed FBS, 0.00234 µM
[3] = HPLM + 10% dialyzed FBS, 0.00702 µM
[4] = HPLM + 10% dialyzed FBS, 0.0211 µM
[5] = HPLM + 10% dialyzed FBS, 0.0632 µM
[6] = HPLM + 10% dialyzed FBS, 0.19 µM
[7] = HPLM + 10% dialyzed FBS, 0.569 µM
[8] = HPLM + 10% dialyzed FBS, 1.71 µM
[9] = HPLM + 10% dialyzed FBS, 5.12 µM
[10] = HPLM + 10% dialyzed FBS, 15.4 µM
[11] = HPLM + 10% dialyzed FBS, 46.1 µM
[12] = RPMI 5 mM glucose + 10% FBS, 0.000781 µM
[13] = RPMI 5 mM glucose + 10% FBS, 0.00234 µM
[14] = RPMI 5 mM glucose + 10% FBS, 0.00702 µM
[15] = RPMI 5 mM glucose + 10% FBS, 0.0211 µM
[16] = RPMI 5 mM glucose + 10% FBS, 0.0632 µM
[17] = RPMI 5 mM glucose + 10% FBS, 0.19 µM
[18] = RPMI 5 mM glucose + 10% FBS, 0.569 µM
[19] = RPMI 5 mM glucose + 10% FBS, 1.71 µM
[20] = RPMI 5 mM glucose + 10% FBS, 5.12 µM
[21] = RPMI 5 mM glucose + 10% FBS, 15.4 µM
[22] = RPMI 5 mM glucose + 10% FBS, 46.1 µM
[23] = RPMI 5 mM glucose + 10% dialyzed FBS, 0.000781 µM
[24] = RPMI 5 mM glucose + 10% dialyzed FBS, 0.00234 µM
[25] = RPMI 5 mM glucose + 10% dialyzed FBS, 0.00702 µM
[26] = RPMI 5 mM glucose + 10% dialyzed FBS, 0.0211 µM
[27] = RPMI 5 mM glucose + 10% dialyzed FBS, 0.0632 µM
[28] = RPMI 5 mM glucose + 10% dialyzed FBS, 0.19 µM
[29] = RPMI 5 mM glucose + 10% dialyzed FBS, 0.569 µM
[30] = RPMI 5 mM glucose + 10% dialyzed FBS, 1.71 µM
[31] = RPMI 5 mM glucose + 10% dialyzed FBS, 5.12 µM
[32] = RPMI 5 mM glucose + 10% dialyzed FBS, 15.4 µM
[33] = RPMI 5 mM glucose + 10% dialyzed FBS, 46.1 µM

Compound	cell viability [1]	cell viability [2]	cell viability [3]	cell viability [4]	cell viability [5]	cell viability [6]	cell viability [7]	cell viability [8]	cell viability [9]	cell viability [10]	cell viability [11]	cell viability [12]	cell viability [13]	cell viability [14]	cell viability [15]	cell viability [16]	cell viability [17]	cell viability [18]	cell viability [19]	cell viability [20]	cell viability [21]	cell viability [22]	cell viability [23]	cell viability [24]	cell viability [25]	cell viability [26]	cell viability [27]	cell viability [28]	cell viability [29]	cell viability [30]	cell viability [31]	cell viability [32]	cell viability [33]
COc1cc(Nc2ncc(F)c(Nc3ccc4c(n3)NC(=O)C(C)(C)O4)n2)cc(OC)c1OC	107%	112%	120%	114%	122%	118%	129%	101%	44.8%	4.38%	4.34%	114%	107%	126%	112%	119%	126%	113%	114%	62.3%	5.34%	5.36%	110%	122%	113%	122%	121%	121%	137%	112%	62.4%	5.87%	5.61%
CC1=CC=CC=C1CN2C(=O)C/3=C(/CCN(CC4=CC=CC=C4)C3)N\5CC\N=C25	124%	120%	119%	119%	119%	112%	107%	106%	81.9%	53.4%	57.5%	129%	109%	117%	119%	127%	114%	118%	122%	79.8%	45.7%	45.2%											
CN(C)C(=O)c1ccc([S+](=O)([O-])c2ccc(NC(=O)[C@@](C)(O)C(F)(F)F)c(Cl)c2)cc1	105%	111%	107%	113%	116%	117%	114%	117%	100%	100%	43.3%	98%	98.1%	107%	108%	115%	110%	97.9%	101%	93.9%	80.9%	62.6%	106%	110%	102%	118%	114%	117%	118%	106%	103%	72.5%	63.5%
Oc1ccc(/C=C/c2cc(O)cc(O)c2)cc1	111%	110%	110%	114%	105%	111%	115%	103%	105%	108%	41.4%	116%	118%	116%	118%	118%	112%	117%	106%	111%	101%	58.6%	108%	111%	111%	112%	113%	116%	121%	108%	103%	84.5%	36.9%
Cc1c(Cn2c(C)nc3c(C(=O)O)cc(N4CCOCC4)cc32)cccc1C(F)(F)F	102%	109%	107%	116%	115%	108%	120%	106%	104%	110%	87.8%	98.6%	100%	108%	115%	111%	102%	113%	109%	99.5%	89.2%	94.2%	92.9%	112%	109%	122%	115%	106%	119%	111%	96.9%	107%	100%
O=C(Nc1cccc(Nc2ncc(Br)c(NCCc3cnc[nH]3)n2)c1)N1CCCC1												98%	103%	110%	90.7%	88.1%	79.7%	34.5%	15.2%	18.8%	33.5%	3.48%	111%	104%	107%	103%	99.5%	92.6%	95.1%	20.3%	27.2%	34.6%	9.06%
O=C(/C=C/c1cccc([S+](=O)([O-])Nc2ccccc2)c1)NO	115%	115%	125%	119%	129%	129%	126%	101%	20.8%	7.58%	7.44%																						
COc1cc2c(Oc3ccc(NC(=O)C4(C(=O)Nc5ccc(F)cc5)CC4)cc3F)ccnc2cc1OCCCN1CCOCC1	86.3%	90.5%	87%	88.8%	81.2%	81.8%	78.5%	38.7%	8.94%	8.26%	5.1%	83.8%	90.3%	84.8%	83.5%	85.7%	74.3%	77.1%	59.5%	10%	11%	4.54%	86.2%	82.9%	86.6%	89.3%	85.4%	80%	88.2%	44.6%	14.7%	12.4%	4.34%
CC(=O)N1CCN(c2ccc(OCc3nn(C)c(C)c3-c3cccc4c(CCCOc5cccc6ccccc56)c(C(=O)O)n(Cc5cccnc5)c34)cc2)CC1	108%	116%	123%	122%	120%	119%	124%	122%	108%	31.8%	9.79%	98.4%	118%	123%	123%	124%	125%	137%	135%	123%	28.2%	11%	107%	124%	121%	128%	128%	123%	136%	129%	134%	91.1%	25.5%
